Columns and labels:
Assay in all cases: relative viability (nuclei count vs DMSO), 5 days (fraction); higher = more cells survive
[1] = test system: 201T
How it was run: (§1)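 One day after seeding in 1536-well plates, lung cancer cell lines were dosed by pin tool. Dosing was either single-drug or a fixed anchor-drug dose plus five library-drug doses (not always all listed) in √10 steps. After 5 days, nuclei were stained in one fix-and-stain step and counted on 4× images, and relative viability is the nuclei count of treated wells over that of vehicle wells, given as the median of duplicate plates.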

[2] = test system: A-427
How it was run: as §1

[3] = test system: ABC-1
How it was run: as §1

[4] = test system: BEN
How it was run: as §1

[5] = test system: CAL-12T
How it was run: as §1

[6] = test system: H3255
How it was run: as §1

[7] = test system: HCC-15
How it was run: as §1

[8] = test system: LC-2-ad
How it was run: as §1

[9] = test system: LCLC-97TM1
How it was run: as §1

[10] = test system: NCI-H1650
How it was run: as §1

[11] = test system: NCI-H1651
How it was run: as §1

[12] = test system: NCI-H1792
How it was run: as §1

[13] = test system: NCI-H1915
How it was run: as §1

[14] = test system: NCI-H1944
How it was run: as §1

[15] = test system: NCI-H2023
How it was run: as §1

[16] = test system: NCI-H2087
How it was run: as §1

[17] = test system: NCI-H460
How it was run: as §1

[18] = test system: NCI-H520
How it was run: as §1

[19] = test system: NCI-H596
How it was run: as §1

[20] = test system: NCI-H650
How it was run: as §1

[21] = test system: NCI-H661
How it was run: as §1

[22] = test system: NCI-H727
How it was run: as §1

[23] = test system: PC-3 [JPC-3]
How it was run: as §1

SMILES: C[C@@H]1CN(CC(=O)Nc2ccc3c(c2)Cc2cccc(-c4cc(=O)cc(N5CCOCC5)o4)c2S3)C[C@H](C)O1 + CS(=O)(=O)CCNCc1ccc(-c2ccc3ncnc(Nc4ccc(OCc5cccc(F)c5)c(Cl)c4)c3c2)o1 [Lapatinib] (partner 2 µM)
- relative viability ([1]; first compound 0.04 µM): 1.07
- relative viability ([1]; first compound 0.1265 µM): 0.976
- relative viability ([1]; first compound 0.4 µM): 1.08
- relative viability ([1]; first compound 4 µM): 0.988
- relative viability ([2]; first compound 0.04 µM): 0.898
- relative viability ([2]; first compound 0.1265 µM): 1.05
- relative viability ([2]; first compound 0.4 µM): 1.18
- relative viability ([2]; first compound 4 µM): 1.01
- relative viability ([3]; first compound 0.04 µM): 0.964
- relative viability ([3]; first compound 0.1265 µM): 1.06
- relative viability ([3]; first compound 0.4 µM): 1.22
- relative viability ([3]; first compound 4 µM): 1.21
- relative viability ([4]; first compound 0.04 µM): 0.609
- relative viability ([4]; first compound 0.1265 µM): 0.666
- relative viability ([4]; first compound 0.4 µM): 0.738
- relative viability ([4]; first compound 4 µM): 0.745
- relative viability ([5]; first compound 0.04 µM): 0.28
- relative viability ([5]; first compound 0.1265 µM): 0.69
- relative viability ([5]; first compound 0.4 µM): 0.667
- relative viability ([5]; first compound 4 µM): 0.636
- relative viability ([6]; first compound 0.04 µM): 0.221
- relative viability ([6]; first compound 0.1265 µM): 0.242
- relative viability ([6]; first compound 0.4 µM): 0.233
- relative viability ([6]; first compound 4 µM): 0.214
- relative viability ([7]; first compound 0.04 µM): 0.866
- relative viability ([7]; first compound 0.1265 µM): 0.736
- relative viability ([7]; first compound 0.4 µM): 0.929
- relative viability ([7]; first compound 4 µM): 0.763
- relative viability ([8]; first compound 0.04 µM): 1
- relative viability ([8]; first compound 0.1265 µM): 0.928
- relative viability ([8]; first compound 0.4 µM): 0.672
- relative viability ([8]; first compound 4 µM): 0.875
- relative viability ([9]; first compound 0.1265 µM): 0.851
- relative viability ([9]; first compound 0.4 µM): 0.867
- relative viability ([9]; first compound 4 µM): 0.858
- relative viability ([10]; first compound 0.04 µM): 0.287
- relative viability ([10]; first compound 0.1265 µM): 0.812
- relative viability ([10]; first compound 0.4 µM): 0.719
- relative viability ([10]; first compound 4 µM): 0.588
- relative viability ([11]; first compound 0.04 µM): 0.82
- relative viability ([11]; first compound 0.1265 µM): 0.889
- relative viability ([11]; first compound 0.4 µM): 0.78
- relative viability ([11]; first compound 4 µM): 0.795
- relative viability ([12]; first compound 0.04 µM): 0.824
- relative viability ([12]; first compound 0.1265 µM): 0.832
- relative viability ([12]; first compound 0.4 µM): 0.856
- relative viability ([12]; first compound 4 µM): 0.849
- relative viability ([13]; first compound 0.04 µM): 0.872
- relative viability ([13]; first compound 0.1265 µM): 0.956
- relative viability ([13]; first compound 0.4 µM): 1.06
- relative viability ([13]; first compound 4 µM): 0.785
- relative viability ([14]; first compound 0.1265 µM): 0.803
- relative viability ([14]; first compound 0.4 µM): 0.977
- relative viability ([14]; first compound 4 µM): 0.876
- relative viability ([15]; first compound 0.04 µM): 0.176
- relative viability ([15]; first compound 0.1265 µM): 0.793
- relative viability ([15]; first compound 0.4 µM): 0.536
- relative viability ([15]; first compound 4 µM): 0.719
- relative viability ([16]; first compound 0.04 µM): 1.06
- relative viability ([16]; first compound 0.1265 µM): 1.01
- relative viability ([16]; first compound 0.4 µM): 1.13
- relative viability ([16]; first compound 4 µM): 0.798
- relative viability ([17]; first compound 0.04 µM): 0.941
- relative viability ([17]; first compound 0.1265 µM): 1.02
- relative viability ([17]; first compound 0.4 µM): 1.04
- relative viability ([17]; first compound 4 µM): 0.799
- relative viability ([18]; first compound 0.04 µM): 0.983
- relative viability ([18]; first compound 0.1265 µM): 0.701
- relative viability ([18]; first compound 0.4 µM): 0.682
- relative viability ([18]; first compound 4 µM): 0.711
- relative viability ([19]; first compound 0.04 µM): 1.07
- relative viability ([19]; first compound 0.1265 µM): 1.24
- relative viability ([19]; first compound 0.4 µM): 1.06
- relative viability ([19]; first compound 4 µM): 1.03
- relative viability ([20]; first compound 0.04 µM): 0.583
- relative viability ([20]; first compound 0.1265 µM): 0.852
- relative viability ([20]; first compound 0.4 µM): 0.857
- relative viability ([20]; first compound 4 µM): 0.697
- relative viability ([21]; first compound 0.1265 µM): 0.488
- relative viability ([21]; first compound 0.4 µM): 0.479
- relative viability ([21]; first compound 4 µM): 0.411
- relative viability ([22]; first compound 0.04 µM): 0.9
- relative viability ([22]; first compound 0.1265 µM): 0.801
- relative viability ([22]; first compound 0.4 µM): 0.78
- relative viability ([22]; first compound 4 µM): 0.752
- relative viability ([23]; first compound 0.04 µM): 0.512
- relative viability ([23]; first compound 0.1265 µM): 0.394
- relative viability ([23]; first compound 0.4 µM): 0.52
- relative viability ([23]; first compound 4 µM): 0.454

SMILES: CC(C)Oc1cc(Nc2nc(N[C@@H](C)c3ccc(F)cn3)ncc2Cl)n[nH]1 [AZ23] + CS(=O)(=O)CCNCc1ccc(-c2ccc3ncnc(Nc4ccc(OCc5cccc(F)c5)c(Cl)c4)c3c2)o1 [Lapatinib] (partner 2 µM)
- relative viability ([1]; first compound 0.01 µM): 1.03
- relative viability ([1]; first compound 0.03162 µM): 1
- relative viability ([1]; first compound 0.3162 µM): 1.1
- relative viability ([2]; first compound 0.01 µM): 1.24
- relative viability ([2]; first compound 0.03162 µM): 1.02
- relative viability ([2]; first compound 0.3162 µM): 1.03
- relative viability ([3]; first compound 0.01 µM): 1.15
- relative viability ([3]; first compound 0.03162 µM): 1.24
- relative viability ([3]; first compound 0.3162 µM): 1.17
- relative viability ([4]; first compound 0.01 µM): 0.807
- relative viability ([4]; first compound 0.03162 µM): 0.906
- relative viability ([4]; first compound 0.3162 µM): 0.708
- relative viability ([5]; first compound 0.03162 µM): 0.701
- relative viability ([5]; first compound 0.3162 µM): 0.647
- relative viability ([6]; first compound 0.01 µM): 0.203
- relative viability ([6]; first compound 0.03162 µM): 0.252
- relative viability ([6]; first compound 0.3162 µM): 0.279
- relative viability ([7]; first compound 0.01 µM): 1.08
- relative viability ([7]; first compound 0.03162 µM): 0.839
- relative viability ([7]; first compound 0.3162 µM): 0.784
- relative viability ([8]; first compound 0.01 µM): 1.32
- relative viability ([8]; first compound 0.03162 µM): 0.997
- relative viability ([8]; first compound 0.3162 µM): 0.912
- relative viability ([9]; first compound 0.01 µM): 0.881
- relative viability ([9]; first compound 0.03162 µM): 0.842
- relative viability ([9]; first compound 0.3162 µM): 1.23
- relative viability ([10]; first compound 0.01 µM): 0.762
- relative viability ([10]; first compound 0.03162 µM): 0.922
- relative viability ([10]; first compound 0.3162 µM): 0.54
- relative viability ([11]; first compound 0.01 µM): 0.685
- relative viability ([11]; first compound 0.03162 µM): 0.921
- relative viability ([11]; first compound 0.3162 µM): 0.973
- relative viability ([12]; first compound 0.01 µM): 1.17
- relative viability ([12]; first compound 0.03162 µM): 1.13
- relative viability ([12]; first compound 0.3162 µM): 0.995
- relative viability ([13]; first compound 0.01 µM): 1.12
- relative viability ([13]; first compound 0.03162 µM): 0.972
- relative viability ([13]; first compound 0.3162 µM): 1.01
- relative viability ([14]; first compound 0.01 µM): 0.789
- relative viability ([14]; first compound 0.03162 µM): 0.88
- relative viability ([14]; first compound 0.3162 µM): 0.903
- relative viability ([15]; first compound 0.03162 µM): 0.945
- relative viability ([15]; first compound 0.3162 µM): 0.929
- relative viability ([16]; first compound 0.01 µM): 1.17
- relative viability ([16]; first compound 0.03162 µM): 1.17
- relative viability ([16]; first compound 0.3162 µM): 1.05
- relative viability ([17]; first compound 0.01 µM): 0.519
- relative viability ([17]; first compound 0.03162 µM): 1.1
- relative viability ([17]; first compound 0.3162 µM): 1.5
- relative viability ([18]; first compound 0.01 µM): 0.842
- relative viability ([18]; first compound 0.03162 µM): 0.964
- relative viability ([18]; first compound 0.3162 µM): 0.8
- relative viability ([19]; first compound 0.01 µM): 1.03
- relative viability ([19]; first compound 0.03162 µM): 1.11
- relative viability ([19]; first compound 0.3162 µM): 1.03
- relative viability ([20]; first compound 0.01 µM): 0.649
- relative viability ([20]; first compound 0.03162 µM): 1.19
- relative viability ([20]; first compound 0.3162 µM): 0.849
- relative viability ([21]; first compound 0.01 µM): 0.432
- relative viability ([21]; first compound 0.03162 µM): 0.633
- relative viability ([21]; first compound 0.3162 µM): 0.545
- relative viability ([22]; first compound 0.01 µM): 0.788
- relative viability ([22]; first compound 0.03162 µM): 0.945
- relative viability ([22]; first compound 0.3162 µM): 0.751
- relative viability ([23]; first compound 0.01 µM): 0.464
- relative viability ([23]; first compound 0.03162 µM): 0.489
- relative viability ([23]; first compound 0.3162 µM): 0.454

From the supplement of paper PMC10307832
